Experimental data: patent US20150352108A1, “AMINO-PYRIMIDINE COMPOUNDS AS INHIBITORS OF TBK1 AND/OR IKK EPSILON” (Alzheimer's Institute of America, priority 2009, published 2015)
Where two headings read alike, the source gives them in different places.

Tests used:
IKKε = target: T1, IKKε (Homo sapiens, UniProt Q14164); test: In-vitro IKKε kinase assay ([γ33]ATP filter-plate); type: biochemical
T1 construct: His-tag; made in house; host or cells: Sf9 insect cells
T1 sequence (Q14164 1-716): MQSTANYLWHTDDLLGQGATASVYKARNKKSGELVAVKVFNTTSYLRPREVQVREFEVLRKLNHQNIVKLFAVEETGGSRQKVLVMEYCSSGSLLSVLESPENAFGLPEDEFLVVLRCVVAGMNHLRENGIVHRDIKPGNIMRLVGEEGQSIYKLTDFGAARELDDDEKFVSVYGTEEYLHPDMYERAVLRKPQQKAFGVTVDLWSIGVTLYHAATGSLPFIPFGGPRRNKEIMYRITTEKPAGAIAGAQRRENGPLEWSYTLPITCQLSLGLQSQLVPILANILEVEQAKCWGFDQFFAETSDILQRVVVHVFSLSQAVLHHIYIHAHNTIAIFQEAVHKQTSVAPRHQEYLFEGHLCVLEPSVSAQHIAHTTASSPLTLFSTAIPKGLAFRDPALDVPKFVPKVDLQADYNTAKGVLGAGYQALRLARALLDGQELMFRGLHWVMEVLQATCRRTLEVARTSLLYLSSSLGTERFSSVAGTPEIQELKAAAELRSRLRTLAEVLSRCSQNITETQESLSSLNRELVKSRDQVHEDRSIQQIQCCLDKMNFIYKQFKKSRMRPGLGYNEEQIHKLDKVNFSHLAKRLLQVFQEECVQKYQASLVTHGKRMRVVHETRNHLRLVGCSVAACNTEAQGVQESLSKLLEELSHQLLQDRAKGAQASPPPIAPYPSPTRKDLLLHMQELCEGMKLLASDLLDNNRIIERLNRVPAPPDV
In short: (§1)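 His-tagged IKKε and TBK1 from Sf9 cells were assayed with myelin basic protein or casein and [γ33]ATP at 2×Km ATP (32 μM for IKKε, 60 μM for TBK1). Enzyme was 0.1 or 0.015 μg/ml for IKKε and 0.1 or 0.02 μg/ml for TBK1 (normal/sensitized). Reactions ran 30-45 min, were filter-captured, scintillation-counted, and normalized to DMSO after background subtraction.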

TBK1 = target: T2, TBK1 (Homo sapiens, UniProt Q9UHD2); test: In-vitro TBK1 kinase assay ([γ33]ATP filter-plate); type: biochemical
T2 construct: His-tag; made in house; host or cells: Sf9 insect cells
T2 sequence (Q9UHD2 1-729): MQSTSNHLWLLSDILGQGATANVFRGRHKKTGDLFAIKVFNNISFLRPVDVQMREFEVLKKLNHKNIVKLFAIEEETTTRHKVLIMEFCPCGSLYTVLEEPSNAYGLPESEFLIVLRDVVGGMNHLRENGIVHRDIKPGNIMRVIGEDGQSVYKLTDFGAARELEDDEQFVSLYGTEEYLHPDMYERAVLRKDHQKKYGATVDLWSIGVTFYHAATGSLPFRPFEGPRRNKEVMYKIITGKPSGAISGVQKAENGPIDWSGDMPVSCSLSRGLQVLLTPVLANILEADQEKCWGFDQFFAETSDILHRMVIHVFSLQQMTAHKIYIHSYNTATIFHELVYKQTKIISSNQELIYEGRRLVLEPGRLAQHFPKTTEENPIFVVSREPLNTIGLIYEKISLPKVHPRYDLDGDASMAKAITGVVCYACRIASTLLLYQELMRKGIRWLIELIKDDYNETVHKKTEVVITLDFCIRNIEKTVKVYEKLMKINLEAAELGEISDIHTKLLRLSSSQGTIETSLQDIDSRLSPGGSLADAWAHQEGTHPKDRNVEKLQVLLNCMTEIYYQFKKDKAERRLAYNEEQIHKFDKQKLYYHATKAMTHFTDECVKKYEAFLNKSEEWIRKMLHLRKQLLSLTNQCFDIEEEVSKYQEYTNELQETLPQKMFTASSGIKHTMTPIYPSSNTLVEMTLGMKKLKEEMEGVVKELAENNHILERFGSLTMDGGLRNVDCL
In short: as §1

[1] = text bins, read-out: IC50 for inhibition of the kinase activity of IKKε
[2] = text bins, read-out: IC50 for inhibition of the kinase activity of TBK1

SMILES | IC50 (IKKε; [1]) | IC50 (TBK1; [2]) | IC50 (IKKε; Table 3, read-out: IKKε IC50) | IC50 (TBK1; Table 3, read-out: TBK1 IC50)
COc1ccc(-c2ccnc(Nc3ccc(N4CCC(N5CCN(C)CC5)CC4)c(OC)c3)n2)cc1C#N [Example 65, 2-Methoxy-5-[2-({3-methoxy-4-[4-(4-methylpiperazin-1-yl)piperidin-1-yl]phenyl}amino)pyrimidin-4-yl]benzonitrile] | 5 to 50 nM | < 10 nM | – | –
CS(=O)(=O)N1CCC(COc2ccc(-c3ccnc(Nc4ccc(N5CCOCC5)cc4)n3)cc2C#N)CC1 [Example 76, 2-{[1-(methylsulfonyl)piperidin-4-yl]methoxy}-5-(2-{[4-(morpholin-4-yl)phenyl]amino}pyrimidin-4-yl)benzonitrile] | < 5 nM | < 10 nM | – | –
COC(=O)c1ccc(Nc2nccc(-c3ccc(OC4CCOCC4)c(C#N)c3)n2)cc1OC [Example 235, methyl 4-({4-[3-cyano-4-(tetrahydro-2H-pyran-4-yloxy)phenyl]pyrimidin-2-yl}amino)-2-methoxybenzoate] | < 5 nM | < 10 nM | – | –
CNc1ccc(-c2ccnc(Nc3ccc(OC)c(OC)c3)n2)cc1C#N [Example 107, 5-{2-[(3,4-Dimethoxyphenyl)amino]pyrimidin-4-yl}-2-(methylamino) benzonitrile] | < 5 nM | < 10 nM | – | –
COc1ccc(-c2ccnc(Nc3cccc(Cl)c3)n2)cc1C#N [Example 260, 5-{2-[(3-Chlorophenyl)amino]pyrimidin-4-yl}-2-methoxybenzonitrile] | 50 to 500 nM | 10 to 100 nM | – | –
N#Cc1cc(-c2ccnc(Nc3ccc(CS(=O)(=O)N4CCCC4)cc3)n2)ccc1OC1CCOCC1 [compound 403, 5-[2-({4-[(Pyrrolidin-1-ylsulfonyl)methyl]phenyl}amino)pyrimidin-4-yl]-2-(tetrahydro-2H-pyran-4-yloxy)benzonitrile] | < 5 nM | < 10 nM | – | –
CC(C)(O)COc1ccc(-c2ccnc(Nc3ccc(N4CCOCC4)cc3)n2)cc1C#N [Example 231, 2-(2-Hydroxy-2-methylpropoxy)-5-(2-{[4-(morpholin-4-yl)phenyl]amino}pyrimidin-4-yl)benzonitrile] | < 5 nM | 10 to 100 nM | – | –
N#Cc1cc(-c2nc(Nc3ccc(N4CCOCC4)cc3)nc3[nH]cnc23)ccc1OC1CCOCC1 [compound 553] | 5 to 50 nM | 10 to 100 nM | – | –
COc1ccc(Nc2nccc(-c3cccc(C#N)c3)n2)cc1Cl [compound 318, 3-{2-[(3-Chloro-4-methoxyphenyl)amino]pyrimidin-4-yl}benzonitrile] | 5 to 50 nM | 10 to 100 nM | – | –
COc1ccc(Nc2nccc(-c3ccc(NC(=O)C(C)C)c(C#N)c3)n2)cc1OCCCN1CCOCC1 [compound 433, N-{2-cyano-4-[2-({4-methoxy-3-[3-(morpholin-4-yl)propoxy]phenyl}amino)pyrimidin-4-yl]phenyl}-2-methylpropanamide] | 5 to 50 nM | < 10 nM | – | –

The remaining lines, values ahead:

IC50 (IKKε; [1]) | IC50 (TBK1; [2]) | IC50 (IKKε; Table 3, read-out: IKKε IC50) | IC50 (TBK1; Table 3, read-out: TBK1 IC50) | SMILES
5 to 50 nM | 10 to 100 nM | – | – | COc1ccc(-c2ccnc(Nc3ccc(NC(C)=O)cc3)n2)cc1C#N [compound 361, N-(4-{[4-(3-Cyano-4-methoxyphenyl)pyrimidin-2-yl]amino}phenyl) acetamide]
5 to 50 nM | 10 to 100 nM | – | – | COc1cc(Nc2nccc(-c3ccc(OC4CCN(C(=O)[C@H](C)O)CC4)c(C#N)c3)n2)ccc1OCCOCCN [Example 105, 5-[2-({4-[2-(2-aminoethoxy)ethoxy]-3-methoxyphenyl}amino)pyrimidin-4-yl]-2-({1-[(2S)-2-hydroxypropanoyl]piperidin-4-yl}oxy)benzonitrile]
5 to 50 nM | 10 to 100 nM | – | – | COc1cc(Nc2nccc(-c3ccc(OC4CCNCC4)c(C#N)c3)n2)ccc1N1CCOCC1 [Example 186, 5-(2-{[3-methoxy-4-(morpholin-4-yl)phenyl]amino}pyrimidin-4-yl)-2-(piperidin-4-yloxy)benzonitrile]
< 5 nM | < 10 nM | – | – | CNS(=O)(=O)Cc1ccc(Nc2nccc(-c3ccc(OCC(C)C)c(C#N)c3)n2)cc1 [compound 606, 1-[4-({4-[3-Cyano-4-(2-methylpropoxy)phenyl]pyrimidin-2-yl}amino)phenyl]-N-methylmethane-sulfonamide]
< 5 nM | < 10 nM | – | – | CC(C)Oc1ccc(-c2ccnc(Nc3ccc(N4CCOCC4)cc3)n2)cc1C#N [Example 191, 5-(2-{[4-(Morpholin-4-yl)phenyl]amino}pyrimidin-4-yl)-2-(propan-2-yloxy)benzonitrile]
< 5 nM | < 10 nM | – | – | N#Cc1cc(-c2ccnc(Nc3ccc(N4CCOCC4)cc3)n2)ccc1NC(=O)C1CC1 [Example 91, N-[2-cyano-4-(2-{[4-(morpholin-4-yl)phenyl]amino}pyrimidin-4-yl)phenyl] cyclopropane-carboxamide]
5 to 50 nM | < 10 nM | – | – | N#Cc1cc(-c2ccnc(Nc3ccc(N4CCOCC4)cc3)n2)ccc1OC1CNC1 [Example 143, 2-(azetidin-3-yloxy)-5-(2-{[4-(morpholin-4-yl)phenyl]amino}pyrimidin-4-yl)benzonitrile]
5 to 50 nM | 10 to 100 nM | – | – | COc1cc(Nc2nccc(-c3ccc(NC(=O)C4CC4)c(C#N)c3)n2)ccc1CN1CC(OC)C1 [compound 570, N-{2-Cyano-4-[2-({3-methoxy-4-[(3-methoxyazetidin-1-yl)methyl]phenyl}amino)pyrimidin-4-yl]phenyl} cyclopropane-carboxamide]
< 5 nM | < 10 nM | – | – | COc1ccc(-c2ccnc(Nc3ccc(N4CCN(C)C(=O)C4)c(OC)c3)n2)cc1C#N [Example 124]
< 5 nM | < 10 nM | – | – | CS(=O)(=O)N1CCC(Oc2ccc(-c3ccnc(Nc4ccc(N5CCOCC5)cc4)n3)cc2C#N)CC1 [Example 246, 2-{[1-(Methylsulfonyl)piperidin-4-yl]oxy}-5-(2-{[4-(morpholin-4-yl)phenyl]amino}pyrimidin-4-yl)benzonitrile]
5 to 50 nM | < 10 nM | – | – | N#Cc1cc(-c2ccnc(Nc3ccc(N4CCOCC4)cc3)n2)ccc1OCC1CCNC1 (stereo not shown) [compound 456, 5-(2-{[4-(morpholin-4-yl)phenyl]amino}pyrimidin-4-yl)-2-(pyrrolidin-3-ylmethoxy) benzonitrile]
< 5 nM | < 10 nM | 3.5 nM | 0.2 nM | COc1cc(-c2ccnc(Nc3ccc(N4CCOCC4)cc3)n2)cc(C#N)c1OC1CCOCC1 [compound 467, 3-methoxy-5-(2-{[4-(morpholin-4-yl)phenyl]amino}pyrimidin-4-yl)-2-(tetrahydro-2H-pyran-4-yloxy)benzonitrile]
5 to 50 nM | 10 to 100 nM | – | – | COc1ccc(-c2ccnc(Nc3cccc(NC(C)=O)c3)n2)cc1C#N [Example 70, N-(3-{[4-(3-Cyano-4-methoxyphenyl)pyrimidin-2-yl]amino}phenyl) acetamide]
5 to 50 nM | 10 to 100 nM | – | – | C[C@H](O)C(=O)N1CCC(COc2ccc(-c3ccnc(Nc4ccc(N5CCOCC5)cc4)n3)cc2C#N)CC1 [Example 152, 2-({1-[(2S)-2-hydroxypropanoyl]piperidin-4-yl}methoxy)-5-(2-{[4-(morpholin-4-yl)phenyl]amino}pyrimidin-4-yl)benzonitrile]
< 5 nM | < 10 nM | – | – | N#Cc1cc(-c2ccnc(Nc3ccc(N4CCOCC4)c(F)c3)n2)ccc1OC1CCOCC1 [Example 24, 5-(2-{[3-fluoro-4-(morpholin-4-yl)phenyl]amino}pyrimidin-4-yl)-2-(tetrahydro-2H-pyran-4-yloxy)benzonitrile]
